# Measurements reported in doi:10.1101/2024.08.19.608619, “Discovery of potent SARS-CoV-2 nsp3 macrodomain inhibitors uncovers lack of translation to cellular antiviral response” (bioRxiv, 2024).
# Several values for one entry are separate records, joined by “and”; a condition that tells them apart may be missing. Identical values can stand only once. Like-named read-outs stand apart in the source and are kept apart here.
# Experiments:
# [1] = target: T1, CCK1 (CCKA) (h) (Homo sapiens, UniProt P32238); experiment: In vitro CEREP profiling, CCK1 (CCKA) (h) (agonist radioligand); type: binding; settings: test compound 10 uM; for inhibition at 10 µM: read-out: perc_inhibition (% inhibition of the binding of a ligand specific for each target)
# T1 construct: purchased Eurofins Cerep (SafetyScreen44), recognised from the panel format
# T1 sequence (P32238 1-428): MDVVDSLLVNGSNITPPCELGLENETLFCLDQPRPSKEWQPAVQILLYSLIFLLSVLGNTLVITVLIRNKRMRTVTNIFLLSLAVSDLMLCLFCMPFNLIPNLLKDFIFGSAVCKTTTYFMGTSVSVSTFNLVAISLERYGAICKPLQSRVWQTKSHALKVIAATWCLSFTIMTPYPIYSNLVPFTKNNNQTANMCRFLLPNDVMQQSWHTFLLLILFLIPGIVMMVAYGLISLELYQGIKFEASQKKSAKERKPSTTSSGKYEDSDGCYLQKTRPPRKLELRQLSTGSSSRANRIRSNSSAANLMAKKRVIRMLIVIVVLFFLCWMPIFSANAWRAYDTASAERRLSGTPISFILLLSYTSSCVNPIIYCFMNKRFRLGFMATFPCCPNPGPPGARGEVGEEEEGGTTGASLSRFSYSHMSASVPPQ
# Excerpt: (§1) Supplement media-1.zip/Safety_Panel_Profile.csv, table | column: perc_inhibition
# [2] = target: T2, 5-HT transporter (h) (Homo sapiens, UniProt P31645); experiment: In vitro CEREP profiling, 5-HT transporter (h) (antagonist radioligand); type: binding; settings: test compound concentration 10 uM
# T2 construct: purchased Eurofins Cerep (SafetyScreen44), recognised from the panel format
# Excerpt: as §1
# [3] = tested on: iPSC pneumocytes; experiment: iPSC pneumocytes cytotoxicity; type: cell-based; settings: for perc_max_measured: highest measured response of the dose series; for perc_min_measured: lowest measured response of the dose series
# Excerpt: (§2) Supplement media-1.zip/Cytotoxicity.csv, table | column: cc10; cc50; perc_min_measured; perc_max_measured
# [4] = tested on: SARS-CoV-2; experiment: Antiviral effect in iPSC-derived pneumocyte system; type: cell-based; settings: iPSC pneumocytes SARS-CoV-2 antiviral effect; for perc_max_measured: maximum measured response of dose series; for perc_min_measured: minimum measured response of dose series
# [5] = tested on: HeLa-ACE2 cells; settings: read-out: 50.0, 1440 min
# [6] = target: hERG (Homo sapiens, UniProt Q12809); experiment: In vitro CEREP profiling, Potassium Channel hERG (human)- [3H] Dofetilide; type: binding; design: purchased Eurofins Cerep (SafetyScreen44), recognised from the panel format; settings: hERG potassium channel binding assay, probe [3H] Dofetilide, test compound concentration 10 uM, read-out: perc_inhibition, % inhibition of the binding of a ligand specific for each target
# Excerpt: as §1
# [7] = target: Nsp3-mac1 (Severe acute respiratory syndrome coronavirus 2, UniProt P0DTD1); experiment: ADPr hydrolase assay (LC-MS/MS); type: biochemical, SARS-CoV-2; settings: Nsp3-mac1 200 nM, αNAD+ 8 μM
# Experimental: ADPr hydrolase activity assay was conducted in 96-well plate with pre-dispensed compounds in 8-point dose response starting from 4 μM (control wells were backfilled with DMSO). […] Nsp3-mac1 200 nM in final assay concentration was added to all wells besides “NAD+ alone” well. The plate was centrifuged at 1,500 rpm for 1 min, and then Incubated at room temperature for 15 min. After incubation, αNAD+ in final concentration of 8 μM were added to each well, and the plate was centrifuged again for 1 min. Then, the plate was incubated under shaking at room temperature for 2.45 h, followed by freezing at −80°C until LC-MS/MS analysis.
# A 30-μl sample aliquot was mixed with 90 μl of methanol and 1μl of 50 μM 15N5-AMP (an internal standard). The mix was shaken for 10 min, then centrifuged (~21,000 g) for 5 min to precipitate the protein. […]
# Mass detection was carried out using electrospray ionization in the positive mode. […] Analytes were detected using multiple reaction monitoring (MRM, m/z) with the following precursor and fragment masses at selected collision energy (eV, indicated in brackets): 560 > 136 (34) and 560 > 348 ([16]) for ADPR, 664 > 524 ([15]) and 664 > 541.7 ([15]) for αNAD+, 353.1 > 97 ([28]) and 353.1 > 141 ([20]) for […] (IS) m/z. […]
# [8] = target: SARS-CoV-2 nsp3-mac1 (Severe acute respiratory syndrome coronavirus 2, UniProt P0DTD1); experiment: biochemical
# [9] = Vero E6/TMPRSS2 cytotoxicity with P-gp inhibitor; type: cell-based; settings: African green monkey, Vero E6/TMPRSS2 cells, with P-gp inhibitor (name and concentration not stated)
# Excerpt: as §2
# [10] = tested on: MDR1; experiment: Permeability Papp (AB) MDR1/MDCKII; settings: dog; for Papp A→B: A to B; for Papp B→A: B to A
# [11] = in vitro; settings: human; for CC50 at 24 h: HeLa-ACE2 cells (uninfected)
# [12] = target: CYP2C9 (Homo sapiens, UniProt P11712); experiment: CYP inhibition; type: in vitro ADME; settings: human; isoform 2C9; In vitro CYP inhibition pooled
# Excerpt: Supplement media-1.zip/CYP_Inhibition.csv, table | column: ic50; potency
# [13] = MDCK-MDR1, efflux_ratio, In vitro MDR1-MDCKII permeability, no inhibitor
# [14] = MDCK-MDR1, papp_a_to_b_mean, In vitro MDR1-MDCKII permeability, mean
# [15] = MDCK-MDR1, papp_a_to_b_mean, In vitro MDR1-MDCKII permeability, no inhibitor
# [16] = MDCK-MDR1, papp_b_to_a_mean, In vitro MDR1-MDCKII permeability, no inhibitor
# [17] = Severe acute respiratory syndrome coronavirus 2
# [18] = protocol iPSC pneumocytes cytotoxicity
# hERG, sequence (Q12809 whole entry): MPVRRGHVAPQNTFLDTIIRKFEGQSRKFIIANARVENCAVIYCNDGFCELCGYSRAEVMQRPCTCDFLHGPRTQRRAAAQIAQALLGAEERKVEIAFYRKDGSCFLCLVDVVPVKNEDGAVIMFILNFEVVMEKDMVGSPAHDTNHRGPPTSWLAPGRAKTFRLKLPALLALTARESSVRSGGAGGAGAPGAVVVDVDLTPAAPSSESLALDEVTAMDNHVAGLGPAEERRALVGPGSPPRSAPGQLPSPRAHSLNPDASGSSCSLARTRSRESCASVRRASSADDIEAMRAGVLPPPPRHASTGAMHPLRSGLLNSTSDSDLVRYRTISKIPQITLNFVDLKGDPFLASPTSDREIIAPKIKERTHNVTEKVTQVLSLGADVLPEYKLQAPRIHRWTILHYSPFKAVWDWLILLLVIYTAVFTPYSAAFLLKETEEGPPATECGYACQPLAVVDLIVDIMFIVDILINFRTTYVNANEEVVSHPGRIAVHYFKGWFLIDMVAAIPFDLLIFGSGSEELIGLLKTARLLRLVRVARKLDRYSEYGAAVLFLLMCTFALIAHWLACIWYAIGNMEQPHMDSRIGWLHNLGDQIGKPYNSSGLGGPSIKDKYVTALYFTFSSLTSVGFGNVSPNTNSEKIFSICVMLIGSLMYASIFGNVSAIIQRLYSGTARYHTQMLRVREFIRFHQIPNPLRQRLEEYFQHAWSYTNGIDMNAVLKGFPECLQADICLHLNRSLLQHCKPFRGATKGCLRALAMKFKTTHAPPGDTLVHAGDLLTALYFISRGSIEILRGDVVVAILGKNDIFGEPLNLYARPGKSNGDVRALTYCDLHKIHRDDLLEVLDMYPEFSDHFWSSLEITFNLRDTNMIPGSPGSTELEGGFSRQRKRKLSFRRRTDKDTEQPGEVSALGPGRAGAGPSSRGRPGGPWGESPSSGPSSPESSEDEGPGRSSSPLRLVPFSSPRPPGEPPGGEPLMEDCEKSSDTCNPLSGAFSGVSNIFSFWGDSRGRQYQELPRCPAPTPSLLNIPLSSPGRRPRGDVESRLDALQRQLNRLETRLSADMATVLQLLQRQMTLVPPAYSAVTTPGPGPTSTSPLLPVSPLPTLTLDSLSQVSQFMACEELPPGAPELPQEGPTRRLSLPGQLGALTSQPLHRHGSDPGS
# T2 sequence (P31645 whole entry): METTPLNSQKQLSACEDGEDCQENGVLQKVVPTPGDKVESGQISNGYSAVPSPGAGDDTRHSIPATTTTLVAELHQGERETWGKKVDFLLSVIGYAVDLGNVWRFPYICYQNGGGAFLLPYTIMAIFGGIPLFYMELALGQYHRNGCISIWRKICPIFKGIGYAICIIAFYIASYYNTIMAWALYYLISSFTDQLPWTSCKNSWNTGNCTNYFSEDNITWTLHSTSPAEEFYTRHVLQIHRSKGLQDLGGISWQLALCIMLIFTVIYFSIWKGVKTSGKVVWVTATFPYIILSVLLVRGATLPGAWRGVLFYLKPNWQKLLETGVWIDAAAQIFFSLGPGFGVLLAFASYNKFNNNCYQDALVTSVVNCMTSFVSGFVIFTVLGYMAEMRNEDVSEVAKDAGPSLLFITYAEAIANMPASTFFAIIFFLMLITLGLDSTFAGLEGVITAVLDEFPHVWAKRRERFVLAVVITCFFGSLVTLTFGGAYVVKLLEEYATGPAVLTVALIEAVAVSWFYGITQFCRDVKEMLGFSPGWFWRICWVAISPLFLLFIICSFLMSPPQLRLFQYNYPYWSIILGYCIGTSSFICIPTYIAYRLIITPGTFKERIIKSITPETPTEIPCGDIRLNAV
# CYP2C9, sequence (P11712 whole entry, canonical isoform): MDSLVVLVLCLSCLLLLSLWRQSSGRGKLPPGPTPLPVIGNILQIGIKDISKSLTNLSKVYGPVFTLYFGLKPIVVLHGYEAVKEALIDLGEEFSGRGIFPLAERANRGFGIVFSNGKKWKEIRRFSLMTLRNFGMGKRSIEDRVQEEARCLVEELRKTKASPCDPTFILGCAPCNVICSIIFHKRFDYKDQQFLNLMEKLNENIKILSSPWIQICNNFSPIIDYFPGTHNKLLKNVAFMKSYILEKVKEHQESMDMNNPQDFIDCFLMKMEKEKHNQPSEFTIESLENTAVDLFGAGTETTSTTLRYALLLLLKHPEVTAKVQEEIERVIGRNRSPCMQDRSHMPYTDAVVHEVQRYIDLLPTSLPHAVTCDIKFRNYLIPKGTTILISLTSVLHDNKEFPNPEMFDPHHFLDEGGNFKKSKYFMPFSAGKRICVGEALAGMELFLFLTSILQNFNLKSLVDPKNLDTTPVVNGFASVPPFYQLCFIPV
compound,measurement,setting,value
C[C@H](C(=O)O)[C@@H](NC(=O)c1ncnc2[nH]ccc12)c1ccc(Br)cc1 [ASAP-0014722],perc_inhibition (% inhibition of the binding of a ligand specific for each target),[1],6%
same,perc_inhibition (% inhibition of the binding of a ligand specific for each target),[2],0%
CNCc1cc(-c2cc3c(N[C@@H](c4ccc5c(c4)S(=O)(=O)CCC5)C(C)C)ncnc3[nH]2)co1 [ASAP-0011176],CC50,[3],> 50 µM
same,cc10,[3],> 50.0 µM
same,perc_max_measured,[3],97.309%
same,perc_min_measured,[3],86.868%
same,perc_inhibition (% inhibition of the binding of a ligand specific for each target),[1],-24%
same,EC50,[4],3.34 µM
same,EC90,[4],> 50 µM
same,perc_max_measured,[4],92.989%
same,perc_min_measured,[4],2.106%
CC(C)[C@H](Nc1ncnc2[nH]ccc12)c1ccc2c(c1)S(=O)(=O)CCC2 [ASAP-0008674],perc_inhibition (% inhibition of the binding of a ligand specific for each target),[1],-2%
CC(C)[C@H](Nc1ncnc2[nH]c(-c3cnn(C)c3C#N)cc12)c1ccc2c(n1)OCCO2 [ASAP-0010715],perc_inhibition (% inhibition of the binding of a ligand specific for each target),[1],1%
Cn1ncc(-c2cc3c(N[C@@H](c4ccc5c(n4)OCCO5)C(C)(C)C)ncnc3[nH]2)c1C#N [ASAP-0011221],perc_inhibition (% inhibition of the binding of a ligand specific for each target),[1],4%
same,CC50,"[5]; ASAP-0008327-001=ASAP-0011221-001, 50.0, 1440 min",> 10 µM
CC(C)C(Nc1ncnc2[nH]c(C(=O)NC3CCN(C)C3)cc12)c1ccc2c(c1)S(=O)(=O)CCC2 (stereo not drawn) [ASAP-0011198],inhibition at 10 µM,[6],7%
same,IC50,[7],0.42 µM
same,perc_max_measured,[3],99.57%
same,perc_min_measured,[3],87.748%
same,IC50,"[8]; HTRF IC50, Figure 6, tool compounds",0.065 µM
same,CC50,[9],> 5 µM
same,inhibition at 10 µM,[1],7%
same,efflux ratio,[10]; [13],1.3
same,Papp A→B,[10]; [14],2.94 ×10⁻⁶ cm/s
same,Papp A→B,[10]; [15],0.0323 ×10⁻⁶ cm/s
same,Papp B→A,[10]; [16],0.0411 ×10⁻⁶ cm/s
same,efflux ratio,"[10]; MDCK-MDR1, with Cyclosporin A, efflux_ratio_inhibitor, MDR1-MDCKII, with inhibitor Cyclosporin A",1.7
same,Papp A→B,"[10]; MDCK-MDR1, with Cyclosporin A, papp_a_to_b_inhibitor_mean, MDR1-MDCKII, with inhibitor Cyclosporin A",< 0.01 ×10⁻⁶ cm/s
same,CC50 at 24 h,[11],> 20 µM
same,EC50,[4]; [17],> 50 µM
same,EC90,[4]; [17],> 50 µM
same,perc_max_measured,[4],101.646%
same,perc_min_measured,[4],52.305%
same,IC50,[12],> 50 µM
CC(C)C(Nc1ncnc2[nH]ccc12)c1ccc2c(c1)S(=O)(=O)CCC2 (stereo not drawn) [ASAP-0008327],cc10,[3]; [18],> 50.0 µM
same,perc_max_measured,[3]; [18],97.729% and 94.012%
same,perc_min_measured,[3]; [18],81.556% and 88.355%
same,IC50,"[8]; IC50, nsp3-mac1 activity, Figures 1-3 and text",0.14 µM
same,Papp A→B,[10]; [14],3.3 ×10⁻⁶ cm/s
same,CC50,[11],> 50 µM
same,EC50,"[4]; Severe acute respiratory syndrome coronavirus 2, iPSC",> 50 µM
same,EC90,[4]; [17],> 50 µM
same,EC50,[4],29.9 µM
same,perc_max_measured,[4],138.005% and 187.741%
CC(C)[C@@H](Nc1ncnc2[nH]c(-c3cnn(C)c3C#N)cc12)c1ccc2c(n1)OCCO2 [ASAP-0008418],perc_max_measured,[3]; [18],95.683%
same,perc_min_measured,[3]; [18],63.391%
same,CC50,[5]; ASAP-0008327-001=ASAP-0008418-001,> 50 µM
same,EC50,[4],12.7 µM
same,EC90,[4],15.6 µM
same,perc_max_measured,[4],116.418%
same,perc_min_measured,[4],5.314%
CC(C)[C@@H](Nc1ncnc2[nH]c(-c3cnn(C)c3C#N)cc12)c1ccc2c(n1)OCCO2 [ASAP-0010716],perc_inhibition (% inhibition of the binding of a ligand specific for each target),[1],20%
Cc1nn(C)cc1-c1cc2c(NC(c3ccc4c(c3)S(=O)(=O)CCC4)C(C)C)ncnc2[nH]1 (stereo not drawn) [ASAP-0011446],inhibition at 10 µM,[6],3%
same,IC50,[7],0.28 µM
same,IC50,"[8]; HTRF IC50, Figure 4B, bioactive pure enantiomer",0.021 µM
same,CC50,[9],> 5 µM
same,inhibition at 10 µM,[1],-8%
same,efflux ratio,[10]; [13],41.1
same,Papp A→B,[10]; [15],0.0911 ×10⁻⁶ cm/s
same,Papp B→A,[10]; [16],3.7 ×10⁻⁶ cm/s
same,efflux ratio,"[10]; MDCK-MDR1, with Verapamil, efflux_ratio_inhibitor, MDR1-MDCKII, with inhibitor Verapamil",21.8
same,Papp A→B,"[10]; MDCK-MDR1, with Verapamil, papp_a_to_b_inhibitor_mean, MDR1-MDCKII, with inhibitor Verapamil",0.216 ×10⁻⁶ cm/s
same,Papp B→A,"[10]; MDCK-MDR1, with Verapamil, papp_b_to_a_inhibitor_mean, MDR1-MDCKII, with inhibitor Verapamil",4.7 ×10⁻⁶ cm/s
same,CC50 at 24 h,[11],> 20 µM
COc1ccc([C@H](Cc2nnn[nH]2)NC(=O)c2ncnc3[nH]ccc23)cc1 [ASAP-0015381],perc_inhibition (% inhibition of the binding of a ligand specific for each target),[1],-5%
same,perc_inhibition (% inhibition of the binding of a ligand specific for each target),[2],-1%
